# Source: publication PMC4911353, “Pharmacologic Inhibition of Host Phosphodiesterase-4 Improves Isoniazid-Mediated Clearance of Mycobacterium tuberculosis” (Frontiers in Immunology, 2016)
# What was measured:
# Mtb-infected mouse lungs = test: Genome-wide lung transcriptome (microarray, IPA network/GO analysis) of Mtb-infected mice; type: in vivo; conditions: TNF-a regulon network
# Pde4 = test: qPCR of host Pde4 gene expression in Mtb-infected mouse lungs; type: in vivo, mice; conditions: 14 days of treatment (28 days postinfection)
# Description: Total lung RNA (200 ng) was reverse-transcribed using Sprint RT kit (Clontech, CA, USA); 10 ng of cDNA were used for quantitative real-time PCR (qPCR), with Brilliant II SYBR master mix (Agilent Technologies, CA, USA) and gene-specific primers in a Stratagene Mx3005P instrument (Agilent Technologies, CA, USA). ROX was included in each reaction as an internal control. The qPCR assay was performed using four mouse samples in duplicate per group; the data were analyzed using MxPro Software (Agilent Technologies, CA, USA). Transcript levels of Gapdh were used as a reference against the test genes. Fold change in gene expression was calculated using the formula 2^−ΔΔCt, where ΔCt is the difference in threshold cycle (Ct) between the target gene and Gapdh; and ΔΔCt is the […] between untreated and CC-11050-treated samples. Primers were designed based on nucleotide sequences obtained from PrimerBank.^3
smiles,measurement,setting,value
"CCOc1cc([C@@H](CS(C)(=O)=O)N2Cc3cccc(NC(=O)C4CC4)c3C2=O)ccc1OC [CC-11050, N-[2-[(1S)-1-(3-ethoxy-4-methoxyphenyl)-2-(methylsulfonyl)ethyl]-2,3-dihydro-3-oxo-1H-isoindol-4-yl]-(9Cl) cyclopropanecarboxamide]",Ins1 expression,Mtb-infected mouse lungs,0
same,Pde4Bv3 (Pde4B variant 3) expression in lungs versus Mtb-infected untreated,Pde4,No significant change
